The target of assay [1] is Isoleucine--tRNA ligase (Escherichia coli) (UniProt P00956). As to the kind of experiment: Inhibition of Escherichia coli isoleucyl-tRNA synthetase.
The target in assay [2] is Alanine--tRNA ligase (Escherichia coli) (UniProt P00957). As to the kind of experiment: Compound tested for the inhibition of Escherichia coli Alanine-tRNA synthetase.
Assay [3] has as its target Leucine--tRNA ligase (Escherichia coli) (UniProt P07813). The experiment in a line: Compound tested for the inhibition of Escherichia coli Leucyl-tRNA synthetase.

In BindingDB's records for doi:10.1016/s0960-894x(98)00738-0 (Cubist Pharmaceuticals, 1999) one finds IC50 data, which are given here for 15 compounds.

SMILES strings stand for the structures. pIC50: −log10 of the molar value.

Sequence of Isoleucine--tRNA ligase (Escherichia coli) (P00956 whole entry, looked up): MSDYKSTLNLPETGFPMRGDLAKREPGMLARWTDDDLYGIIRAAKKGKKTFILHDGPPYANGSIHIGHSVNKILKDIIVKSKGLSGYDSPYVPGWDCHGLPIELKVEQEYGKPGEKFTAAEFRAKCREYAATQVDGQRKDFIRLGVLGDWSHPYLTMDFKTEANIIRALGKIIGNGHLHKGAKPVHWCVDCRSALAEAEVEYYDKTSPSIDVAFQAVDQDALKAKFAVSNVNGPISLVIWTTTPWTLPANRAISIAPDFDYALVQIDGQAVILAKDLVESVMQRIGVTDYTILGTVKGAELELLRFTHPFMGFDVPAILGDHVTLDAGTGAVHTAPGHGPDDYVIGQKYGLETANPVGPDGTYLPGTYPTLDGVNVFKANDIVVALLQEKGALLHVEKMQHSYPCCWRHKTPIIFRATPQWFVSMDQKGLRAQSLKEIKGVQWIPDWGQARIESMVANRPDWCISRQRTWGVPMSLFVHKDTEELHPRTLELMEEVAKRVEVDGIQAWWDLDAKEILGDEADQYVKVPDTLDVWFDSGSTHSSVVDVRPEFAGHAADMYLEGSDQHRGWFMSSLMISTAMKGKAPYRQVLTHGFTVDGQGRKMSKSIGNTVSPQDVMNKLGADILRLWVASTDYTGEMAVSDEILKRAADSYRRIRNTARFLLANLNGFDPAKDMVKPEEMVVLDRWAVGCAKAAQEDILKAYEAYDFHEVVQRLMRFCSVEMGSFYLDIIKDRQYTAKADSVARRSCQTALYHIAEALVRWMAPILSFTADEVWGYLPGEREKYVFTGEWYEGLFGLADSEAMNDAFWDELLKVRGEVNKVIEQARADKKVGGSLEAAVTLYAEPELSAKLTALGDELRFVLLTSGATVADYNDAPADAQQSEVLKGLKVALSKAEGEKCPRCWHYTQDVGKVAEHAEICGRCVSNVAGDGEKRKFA
Sequence of Leucine--tRNA ligase (Escherichia coli) (P07813 whole entry, looked up): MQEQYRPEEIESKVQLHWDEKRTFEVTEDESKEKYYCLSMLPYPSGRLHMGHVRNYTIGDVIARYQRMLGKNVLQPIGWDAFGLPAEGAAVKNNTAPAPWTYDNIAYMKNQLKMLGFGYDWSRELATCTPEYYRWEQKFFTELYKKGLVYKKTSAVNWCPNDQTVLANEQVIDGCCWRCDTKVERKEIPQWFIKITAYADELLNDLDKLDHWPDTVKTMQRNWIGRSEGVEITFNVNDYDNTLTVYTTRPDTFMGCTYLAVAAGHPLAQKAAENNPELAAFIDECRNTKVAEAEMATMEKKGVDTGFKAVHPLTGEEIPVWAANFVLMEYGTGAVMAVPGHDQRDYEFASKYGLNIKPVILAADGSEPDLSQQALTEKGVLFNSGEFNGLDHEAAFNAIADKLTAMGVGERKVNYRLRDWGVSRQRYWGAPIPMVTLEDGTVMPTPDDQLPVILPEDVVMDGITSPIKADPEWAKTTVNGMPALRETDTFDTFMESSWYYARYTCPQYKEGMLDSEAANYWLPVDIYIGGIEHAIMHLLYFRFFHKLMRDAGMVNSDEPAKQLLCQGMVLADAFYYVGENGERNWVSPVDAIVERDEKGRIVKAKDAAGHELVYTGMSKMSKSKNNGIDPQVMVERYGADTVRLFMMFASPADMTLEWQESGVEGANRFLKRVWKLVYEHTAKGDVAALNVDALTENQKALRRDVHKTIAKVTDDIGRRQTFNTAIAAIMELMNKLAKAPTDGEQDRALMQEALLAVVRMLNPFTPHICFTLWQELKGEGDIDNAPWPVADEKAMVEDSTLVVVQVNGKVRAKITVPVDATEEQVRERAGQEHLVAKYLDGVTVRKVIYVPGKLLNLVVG
Sequence of Alanine--tRNA ligase (Escherichia coli) (P00957 whole entry, looked up): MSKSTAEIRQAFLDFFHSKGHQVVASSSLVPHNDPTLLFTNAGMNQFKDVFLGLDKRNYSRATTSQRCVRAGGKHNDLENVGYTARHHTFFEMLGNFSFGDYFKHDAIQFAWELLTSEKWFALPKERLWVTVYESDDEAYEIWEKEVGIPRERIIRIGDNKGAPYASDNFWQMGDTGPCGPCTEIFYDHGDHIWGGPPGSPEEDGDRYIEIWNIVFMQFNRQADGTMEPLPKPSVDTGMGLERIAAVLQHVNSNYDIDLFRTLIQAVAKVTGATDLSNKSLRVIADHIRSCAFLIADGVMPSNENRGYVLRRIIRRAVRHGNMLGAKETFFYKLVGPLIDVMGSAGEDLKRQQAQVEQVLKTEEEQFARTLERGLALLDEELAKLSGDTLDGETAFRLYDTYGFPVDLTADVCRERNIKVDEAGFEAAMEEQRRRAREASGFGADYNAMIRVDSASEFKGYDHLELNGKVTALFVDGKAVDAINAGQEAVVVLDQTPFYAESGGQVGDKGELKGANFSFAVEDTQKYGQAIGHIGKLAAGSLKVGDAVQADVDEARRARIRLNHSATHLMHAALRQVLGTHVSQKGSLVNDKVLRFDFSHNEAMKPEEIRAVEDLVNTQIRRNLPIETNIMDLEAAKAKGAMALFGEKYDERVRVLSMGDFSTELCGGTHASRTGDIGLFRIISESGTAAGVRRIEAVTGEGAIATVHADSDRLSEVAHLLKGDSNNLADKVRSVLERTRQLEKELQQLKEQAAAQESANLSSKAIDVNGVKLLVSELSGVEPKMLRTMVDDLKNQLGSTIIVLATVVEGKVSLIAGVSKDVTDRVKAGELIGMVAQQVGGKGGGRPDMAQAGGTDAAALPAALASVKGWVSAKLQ

On to `CC[C@H](C)[C@H](N)C(=O)NS(=O)(=O)OC[C@H]1O[C@@H](c2nc(-c3ccccc3)cs2)[C@H](O)[C@@H]1O` [((2S,3S)-2-Amino-3-methyl-pentanoyl)-sulfamic acid (2R,3S,4R,5R)-3,4-dihydroxy-5-(4-phenyl-thiazol-2-yl)-tetrahydro-furan-2-ylmethyl ester], for which the results for the negative-log IC50 (pIC50) in assay [1] and in assay [2] were 7.00 and less than 4.00, respectively.

`CC(C)[C@H](N)C(=O)NS(=O)(=O)OC[C@H]1O[C@@H](c2nc(-c3ccccc3)cs2)[C@H](O)[C@@H]1O` [((S)-2-Amino-3-methyl-butyryl)-sulfamic acid (2R,3S,4R,5R)-3,4-dihydroxy-5-(4-phenyl-thiazol-2-yl)-tetrahydro-furan-2-ylmethyl ester]: the pIC50 in assay [3] was 4.85; in assay [1], 4.82; in assay [2], less than 4.00. `CCC(C)[C@H](N)C(=O)NS(=O)(=O)OC[C@H]1O[C@@H](c2nc(CCc3ccccc3)cs2)[C@H](O)[C@@H]1O` (stereo partly drawn) [((S)-2-Amino-3-methyl-pentanoyl)-sulfamic acid (2R,3S,4R,5R)-3,4-dihydroxy-5-(4-phenethyl-thiazol-2-yl)-tetrahydro-furan-2-ylmethyl ester] showed a negative logarithm of the IC50 (pIC50) in assay [1] of 7.52. Same read-out and setting: in the case of `CCC(C)[C@H](N)C(=O)NS(=O)(=O)OC[C@H]1O[C@@H](c2nc(-c3ccccc3OC)cs2)[C@H](O)[C@@H]1O` (stereo partly drawn) [((S)-2-Amino-3-methyl-pentanoyl)-sulfamic acid (2R,3S,4R,5R)-3,4-dihydroxy-5-[4-(2-methoxy-phenyl)-thiazol-2-yl]-tetrahydro-furan-2-ylmethyl ester] it was 7.52; in that of `CCC(C)[C@H](N)C(=O)NS(=O)(=O)OC[C@H]1O[C@@H](c2nc(-c3cccc(OC)c3)cs2)[C@H](O)[C@@H]1O` (stereo partly drawn) [((S)-2-Amino-3-methyl-pentanoyl)-sulfamic acid (2R,3S,4R,5R)-3,4-dihydroxy-5-[4-(3-methoxy-phenyl)-thiazol-2-yl]-tetrahydro-furan-2-ylmethyl ester], 7.82.

For `CCC(C)[C@H](N)C(=O)NS(=O)(=O)OC[C@H]1O[C@@H](c2nc(-c3ccc(OC)cc3)cs2)[C@H](O)[C@@H]1O` (stereo partly drawn) [((S)-2-Amino-3-methyl-pentanoyl)-sulfamic acid (2R,3S,4R,5R)-3,4-dihydroxy-5-[4-(4-methoxy-phenyl)-thiazol-2-yl]-tetrahydro-furan-2-ylmethyl ester], the pIC50 in assay [1] is 7.00. Same read-out and setting: in the case of `CCC(C)[C@H](N)C(=O)NS(=O)(=O)OC[C@H]1O[C@@H](c2nc(-c3ccc(Oc4ccccc4)cc3)cs2)[C@H](O)[C@@H]1O` (stereo partly drawn) [((S)-2-Amino-3-methyl-pentanoyl)-sulfamic acid (2R,3S,4R,5R)-3,4-dihydroxy-5-[4-(4-phenoxy-phenyl)-thiazol-2-yl]-tetrahydro-furan-2-ylmethyl ester] it was 7.35. Same read-out and setting: in the case of `CCC(C)[C@H](N)C(=O)NS(=O)(=O)OC[C@H]1O[C@@H](c2nc(-c3ccc4cc(OC)ccc4c3)cs2)[C@H](O)[C@@H]1O` (stereo partly drawn) [((S)-2-Amino-3-methyl-pentanoyl)-sulfamic acid (2R,3S,4R,5R)-3,4-dihydroxy-5-[4-(6-methoxy-naphthalen-2-yl)-thiazol-2-yl]-tetrahydro-furan-2-ylmethyl ester] it was 7.70. Same read-out and setting: in the case of `CCC(C)[C@H](N)C(=O)NS(=O)(=O)OC[C@H]1O[C@@H](c2nc(CCc3ccc(Oc4ccccc4)cc3)cs2)[C@H](O)[C@@H]1O` (stereo partly drawn) [((S)-2-Amino-3-methyl-pentanoyl)-sulfamic acid (2R,3S,4R,5R)-3,4-dihydroxy-5-{4-[2-(4-phenoxy-phenyl)-ethyl]-thiazol-2-yl}-tetrahydro-furan-2-ylmethyl ester] it was 6.96. For the compound `N[C@@H](Cc1ccccc1)C(=O)NS(=O)(=O)OC[C@H]1O[C@@H](c2nc(-c3ccccc3)cs2)[C@H](O)[C@@H]1O` [((S)-2-Amino-3-phenyl-propionyl)-sulfamic acid (2R,3S,4R,5R)-3,4-dihydroxy-5-(4-phenyl-thiazol-2-yl)-tetrahydro-furan-2-ylmethyl ester], the pIC50 in assay [3], in assay [1] and in assay [2] was less than 4.00 each time. For the compound `CC(C)C[C@H](N)C(=O)NS(=O)(=O)OC[C@H]1O[C@@H](c2nc(CCc3ccccc3)cs2)[C@H](O)[C@@H]1O` [((S)-2-Amino-4-methyl-pentanoyl)-sulfamic acid (2R,3S,4R,5R)-3,4-dihydroxy-5-(4-phenethyl-thiazol-2-yl)-tetrahydro-furan-2-ylmethyl ester], the negative-log IC50 (pIC50) in assay [3] was more than 8.70.

For `CC(C)C[C@H](N)C(=O)NS(=O)(=O)OC[C@H]1O[C@@H](c2nc(-c3ccc(Oc4ccccc4)cc3)cs2)[C@H](O)[C@@H]1O` [((S)-2-Amino-4-methyl-pentanoyl)-sulfamic acid (2R,3S,4R,5R)-3,4-dihydroxy-5-[4-(4-phenoxy-phenyl)-thiazol-2-yl]-tetrahydro-furan-2-ylmethyl ester], in assay [3], the negative-log IC50 (pIC50) is 8.80. As for `CC(C)C[C@H](N)C(=O)NS(=O)(=O)OC[C@H]1O[C@@H](c2nc(CCc3ccc(Oc4ccccc4)cc3)cs2)[C@H](O)[C@@H]1O` [((S)-2-Amino-4-methyl-pentanoyl)-sulfamic acid (2R,3S,4R,5R)-3,4-dihydroxy-5-{4-[2-(4-phenoxy-phenyl)-ethyl]-thiazol-2-yl}-tetrahydro-furan-2-ylmethyl ester], the pIC50 in assay [3] is 8.22. Take `C[C@H](N)C(=O)NS(=O)(=O)OC[C@H]1O[C@@H](c2nc(-c3ccccc3)cs2)[C@H](O)[C@@H]1O` [((S)-2-Amino-propionyl)-sulfamic acid (2R,3S,4R,5R)-3,4-dihydroxy-5-(4-phenyl-thiazol-2-yl)-tetrahydro-furan-2-ylmethyl ester]: the negative-log IC50 (pIC50) in assay [3] was less than 4.00; in assay [1], 4.00; in assay [2], less than 4.00.

On to `N[C@@H](Cc1cnc[nH]1)C(=O)NS(=O)(=O)OC[C@H]1O[C@@H](c2nc(-c3ccccc3)cs2)[C@H](O)[C@@H]1O` [[(S)-2-Amino-3-(3H-imidazol-4-yl)-propionyl]-sulfamic acid (2R,3S,4R,5R)-3,4-dihydroxy-5-(4-phenyl-thiazol-2-yl)-tetrahydro-furan-2-ylmethyl ester], for which the negative logarithm of the IC50 (pIC50) in assay [3], in assay [1] and in assay [2] was less than 4.00 in each case.
